In PubChem BioAssay (NCI) one finds TGI data, which are given here for 14 compounds.

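Following 48 hours of exposure in 96-well plates, responses at five concentrations were used to interpolate endpoints linearly. TGI: total growth inhibition.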

Among the test systems are DU-145 prostate; EKVX NSCLC; HCT-116 colon; HL-60(TB) leukemia; NCI-H23 lung; OVCAR-8 ovarian; SK-OV-3 ovarian; SN12C renal; T-47D breast; UO-31 renal.
Common to all, as to assay: NCI anticancer screen, dose series, 48 h

For the compound `O=C(c1ccccn1)C1(N2CCCCC2)CCCCC1`, the TGI in the assay with DU-145 prostate, in the assay on EKVX NSCLC, in the assay with HCT-116 colon, in the assay on HL-60(TB) leukemia, in the assay on NCI-H23 lung and with OVCAR-8 ovarian was over 100 µM in each case. Moreover, the TGI in the assay on SK-OV-3 ovarian, in the assay on SN12C renal, in the assay on T-47D breast and in the assay with UO-31 renal was over 100 µM in each case.

`O=C(NCc1ccccc1)c1n[nH][nH]c1=O`: the TGI in the assay on DU-145 prostate, in the assay on EKVX NSCLC, in the assay with HCT-116 colon, in the assay on HL-60(TB) leukemia, with NCI-H23 lung and in the assay with OVCAR-8 ovarian was over 100 µM each time. The TGI in the assay with SK-OV-3 ovarian, in the assay on SN12C renal, in the assay with T-47D breast and in the assay with UO-31 renal was over 100 µM each time.

As for `Cn1c(=O)c2c(nc3n2CC(C(=O)O)N3)n(C)c1=O` (stereo not drawn), the TGI with DU-145 prostate, in the assay with EKVX NSCLC, in the assay with HCT-116 colon, in the assay with HL-60(TB) leukemia, in the assay on NCI-H23 lung and in the assay with OVCAR-8 ovarian was over 100 µM each time. In addition, the TGI in the assay with SK-OV-3 ovarian, in the assay with SN12C renal, in the assay with T-47D breast and in the assay with UO-31 renal was over 100 µM each time.

Turning to `CCC(=O)NCC1CCCN2CCCCC12` (stereo not drawn), the TGI with DU-145 prostate, with EKVX NSCLC, in the assay with HCT-116 colon, in the assay on HL-60(TB) leukemia, with NCI-H23 lung and in the assay on OVCAR-8 ovarian was over 100 µM throughout. For the same compound, the TGI with SK-OV-3 ovarian, in the assay on SN12C renal, with T-47D breast and in the assay on UO-31 renal was over 100 µM in each case.

As for `c1ccc2c(c1)Cn1c-2nc2ccccc21`, the TGI in the assay on DU-145 prostate, with EKVX NSCLC, in the assay on HCT-116 colon, in the assay on HL-60(TB) leukemia, with NCI-H23 lung and in the assay with OVCAR-8 ovarian was over 100 µM throughout. In addition, the TGI was over 100 µM in the assay on SK-OV-3 ovarian, over 100 µM in the assay on SN12C renal, over 100 µM in the assay with T-47D breast and 23 µM in the assay on UO-31 renal.

With `Nc1nc2c(c(-c3cccc(Cl)c3)n1)COC/C2=C\c1cccc(Cl)c1`, the TGI in the assay with DU-145 prostate, in the assay on EKVX NSCLC, in the assay with HCT-116 colon, with HL-60(TB) leukemia, with NCI-H23 lung and with OVCAR-8 ovarian was over 100 µM throughout. For the same compound, the TGI with SK-OV-3 ovarian is over 100 µM; with SN12C renal, over 100 µM; in the assay with T-47D breast it was over 100 µM; with UO-31 renal it was 76.3 µM.

With `Cn1c2ccc3cc2c(=S)c2cc(ccc21)OCCOCCOCCOCCOCCOCCO3`, the TGI in the assay with DU-145 prostate, with EKVX NSCLC, with HCT-116 colon, in the assay on HL-60(TB) leukemia, in the assay with NCI-H23 lung and in the assay with OVCAR-8 ovarian was over 10 µM each time. In addition, the TGI in the assay with SK-OV-3 ovarian, with SN12C renal, in the assay with T-47D breast and in the assay with UO-31 renal was over 10 µM each time.

Consider `O=c1[nH]c(=S)[nH]c2c1C(c1ccc([N+](=O)[O-])cc1)c1c([nH]c(=S)[nH]c1=O)O2`, for which the TGI with DU-145 prostate, in the assay with EKVX NSCLC, in the assay with HCT-116 colon, in the assay with HL-60(TB) leukemia, with NCI-H23 lung and in the assay on OVCAR-8 ovarian was over 100 µM in each case. Besides, the TGI in the assay with SN12C renal, with T-47D breast and with UO-31 renal was over 100 µM each time.

With `Cc1cccc(Cn2c3c(c4cc(O)ccc42)C(=O)c2ccccc2C3=O)c1`, the TGI in the assay with DU-145 prostate was over 100 µM; with EKVX NSCLC, 49 µM; in the assay with HCT-116 colon it was over 100 µM; in the assay with HL-60(TB) leukemia, over 89 µM; in the assay on NCI-H23 lung, over 100 µM; with OVCAR-8 ovarian, over 93.2 µM. Further, the TGI is over 29.9 µM in the assay with SK-OV-3 ovarian, over 100 µM in the assay on SN12C renal, over 100 µM in the assay with T-47D breast and over 100 µM in the assay on UO-31 renal.

For `[N-]=[N+]=NC(c1ccccc1)(c1ccccc1)c1ccccc1`, the TGI in the assay on DU-145 prostate was found to be 36.1 µM; in the assay with EKVX NSCLC, 27.8 µM; in the assay on HCT-116 colon, 30.2 µM; in the assay on HL-60(TB) leukemia it was 39.4 µM; in the assay with NCI-H23 lung it was 42.4 µM; in the assay on OVCAR-8 ovarian, 35.1 µM. For the same compound, the TGI is over 100 µM in the assay on SK-OV-3 ovarian, 30.9 µM with SN12C renal, 38.4 µM in the assay with T-47D breast and 30 µM with UO-31 renal.

As for `C[C@]12CC[C@H](O)CC1=CC[C@@H]1[C@@H]2CC[C@]2(C)C(=N/N)/C(=N\O)C[C@@H]12`, the TGI in the assay with DU-145 prostate is over 100 µM; in the assay with EKVX NSCLC, over 100 µM; in the assay with HCT-116 colon it was over 100 µM; with HL-60(TB) leukemia it was 67.7 µM; in the assay on NCI-H23 lung, over 100 µM; in the assay with OVCAR-8 ovarian, over 100 µM. The TGI with SK-OV-3 ovarian, in the assay with SN12C renal, in the assay on T-47D breast and in the assay on UO-31 renal was over 100 µM each time.

For the compound `COC(=O)c1c(C)nc2c1cc(O)c1[nH]c(C)c(C)nc12`, the TGI in the assay on DU-145 prostate, in the assay on EKVX NSCLC, in the assay with HCT-116 colon, with HL-60(TB) leukemia, in the assay on NCI-H23 lung and in the assay with OVCAR-8 ovarian was over 100 µM each time. The TGI in the assay with SK-OV-3 ovarian, with SN12C renal, in the assay with T-47D breast and in the assay on UO-31 renal was over 100 µM each time.

Regarding `CC1=Nc2ccccc2OC(C)=C1N=Nc1ccc2nc(C)[nH]c2c1`, the TGI with DU-145 prostate, with EKVX NSCLC, in the assay on HCT-116 colon, in the assay with HL-60(TB) leukemia, in the assay on NCI-H23 lung and in the assay on OVCAR-8 ovarian was over 100 µM throughout. Further, the TGI in the assay on SK-OV-3 ovarian, in the assay on SN12C renal and with T-47D breast was over 100 µM each time.

With `C(=C(c1ccc(OC2CCCCO2)cc1)c1ccc(OC2CCCCO2)cc1)c1ccccc1` (stereo not drawn), the TGI in the assay with DU-145 prostate came out at 2.11 µM; with EKVX NSCLC it was 1.83 µM; in the assay with HCT-116 colon, 1.64 µM; in the assay with HL-60(TB) leukemia, 1.19 µM; in the assay on NCI-H23 lung it was 2.24 µM; with OVCAR-8 ovarian it was 2.64 µM. In addition, the TGI in the assay with SK-OV-3 ovarian worked out at 2.64 µM; with SN12C renal, 2.47 µM; in the assay with T-47D breast, 2.14 µM; in the assay on UO-31 renal, 2.26 µM.
